The text below walks through data of article PMC12368479, “Inhibition of the Clathrin Terminal Domain—Amphiphysin Protein–Protein Interaction. Probing the Pitstop 2 Aromatic Moiety” (Chemmedchem, 2025).

Where two headings read alike, the source gives them in different places.

Series [1] deals with T1, clathrin heavy chain NTD (amino acids 1–364) – amphiphysin 1 B/C domain protein–protein interaction (NTD‐PPI) (Homo sapiens, UniProt Q00610).
T1 construct: GST‐tagged clathrin heavy chain NTD (amino acids 1–364); made in house
T1 sequence (Q00610 1-364): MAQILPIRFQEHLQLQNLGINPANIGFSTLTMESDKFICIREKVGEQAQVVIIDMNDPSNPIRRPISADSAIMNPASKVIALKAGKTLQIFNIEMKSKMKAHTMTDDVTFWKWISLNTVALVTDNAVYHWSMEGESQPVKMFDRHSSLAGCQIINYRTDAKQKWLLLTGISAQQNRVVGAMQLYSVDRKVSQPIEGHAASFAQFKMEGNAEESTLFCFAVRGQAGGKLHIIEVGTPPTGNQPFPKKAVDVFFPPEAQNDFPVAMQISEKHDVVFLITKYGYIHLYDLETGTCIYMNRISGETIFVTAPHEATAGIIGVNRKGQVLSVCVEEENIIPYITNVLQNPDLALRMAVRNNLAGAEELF
The experiment in a line: ELISA-based clathrin inhibitor binding assay (NTD-PPI). Put shortly: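 His6-tagged amphiphysin 1 B/C domain (aa 250–578) was coated on plates in 20 mM HEPES pH 7.4, 50 mM NaCl, 1 mM DTT; compounds were incubated 1 h at room temperature with GST-clathrin NTD (aa 1–364). Bound NTD was detected by HRP anti-GST and TMB absorbance, expressed as percent binding of DMSO control.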
In general terms: ELISA stands for enzyme-linked immunosorbent assay.

In series [2] the target is T2, full length human Dynamin I (Homo sapiens, UniProt Q05193).
T2 construct: full length human Dynamin I expressed in Sf21 insect cells; made in house; host or cells: Sf21 insect cells
T2 sequence (Q05193 1-864): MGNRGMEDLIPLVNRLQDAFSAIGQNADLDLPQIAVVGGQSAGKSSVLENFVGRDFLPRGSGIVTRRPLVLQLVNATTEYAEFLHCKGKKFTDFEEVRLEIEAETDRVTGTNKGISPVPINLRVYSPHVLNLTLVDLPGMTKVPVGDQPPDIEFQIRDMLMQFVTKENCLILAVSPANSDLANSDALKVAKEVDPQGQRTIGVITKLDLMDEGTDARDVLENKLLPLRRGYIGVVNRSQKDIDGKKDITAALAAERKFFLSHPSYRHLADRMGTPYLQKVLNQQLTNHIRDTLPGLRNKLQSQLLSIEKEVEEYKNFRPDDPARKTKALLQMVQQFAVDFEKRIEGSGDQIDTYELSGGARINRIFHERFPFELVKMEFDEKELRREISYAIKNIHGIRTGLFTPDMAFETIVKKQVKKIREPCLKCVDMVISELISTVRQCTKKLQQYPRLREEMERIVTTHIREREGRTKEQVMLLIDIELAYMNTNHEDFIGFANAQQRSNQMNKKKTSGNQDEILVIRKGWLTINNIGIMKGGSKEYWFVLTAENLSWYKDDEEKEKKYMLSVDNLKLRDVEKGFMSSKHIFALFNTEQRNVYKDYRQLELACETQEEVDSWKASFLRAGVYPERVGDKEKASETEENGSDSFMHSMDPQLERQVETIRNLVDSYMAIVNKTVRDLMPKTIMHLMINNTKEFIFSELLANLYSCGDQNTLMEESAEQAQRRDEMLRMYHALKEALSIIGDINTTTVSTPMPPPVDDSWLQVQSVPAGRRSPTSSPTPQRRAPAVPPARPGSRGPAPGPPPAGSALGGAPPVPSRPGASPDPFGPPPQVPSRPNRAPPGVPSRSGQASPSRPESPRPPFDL
The experiment in a line: Dynamin GTPase activity, Malachite Green phosphate detection assay. It counts as biochemical. The method, then: Dynamin GTPase activity was determined in vitro using the Malachite Green phosphate detection absorbance‐based assay within a 96‐well plate format as described previously. The enzyme source was full length human Dynamin I expressed in Sf21 insect cells and affinity‐purified on GST‐Amph2‐SH3 (rat Amphiphysin 2 (494–588)).^[ [56] ^]

In series [3] the test system is transferrin uptake (CME) in U2OS osteosarcoma cells. The experiment in a line: Clathrin-mediated endocytosis assay: transferrin (Tfn) uptake in U2OS cells. Format: cell-based. The following applies: Homo sapiens, U2OS; for inhibition at 5 µM: read-out: 2-point CME (% Inhibition) 5 µM; for inhibition at 50 µM: read-out: 2-point CME (% Inhibition) 50 µM. Here is the method:
Using our previously reported CME assay in U2OS cells, the ability of these compounds to block endocytosis was examined (Table 5 ).^[ [48], [49] ^]
CME was examined by a high‐throughput, quantitative assay for measuring transferrin (Tfn) uptake in U2OS osteosarcoma cells, based on methods described previously.^[ [48] ^]
Compounds were made up fresh from powder stock just prior to commencing the assay, and stock solutions were stored at −20 °C for several months.

Series [4] is described as follows: Qualitative solubility in solvents (compound data sheets, Supporting Information). The following applies: solvents in which the compound dissolves. Format: physicochemical.
[5] abbreviates: Table 4, library 4, ELISA, average of duplicate measurements (n = 2), read-out: NTD‐PPI IC50.
The mark [6] stands for this setting: Table 5, ELISA, read-out: NTD‐PPI IC50.
The mark [7] stands for this setting: Table 4, library 4, n = 1 or n = 2 as footnoted, '–' = not active at 100 μM, read-out: Dynamin 1 IC50.
Setting [8] is: Table 5, dynamin GTPase, n = 1 or n = 2 as footnoted, NA = not active at 100 μM, read-out: Dynamin 1 IC50.
Where [9] appears, read: Table 5, inhibition of transferrin‐red uptake in U2OS cells, '–'/NA = not active at 100 μM.
Setting [10] is: Table 1, library 1, ELISA, average of duplicate measurements (n=2), read-out: NTD‐PPI IC50.
Setting [11] is: Table 1, library 1, n = 1 unless noted (19: n = 2), '–' = not active at 150 μM, read-out: Dyn 1 IC50.
Where [12] appears, read: Table S1, preliminary (n=1) unless otherwise noted, NA = not active, includes IC50 > 150 μM, read-out: Dynamin 1 IC50.

By IC50 is commonly meant the concentration at which inhibition is half-maximal. Consider `O=C1COc2ccc(/C=C3\SC(NS(=O)(=O)c4cccc5ccccc45)=NC3=O)cc2N1` [compound 52, (Z)‐N‐(4‐oxo‐5‐((3‐oxo‐3,4‐dihydro‐2H‐benzo[b][1,4]oxazin‐6‐yl)methylene)‐4,5‐dihydrothiazol‐2‐yl)naphthalene‐1‐sulfonamide], for which the IC50 is 3.33 µM in series [1] (setting [5]); 3.33 µM in series [1] (setting [6]); less than 5 µM in series [1] (read-out: NTD‐PPI IC50 (ELISA)); approximately 54.1 µM in series [2] (setting [7]); approximately 54.1 µM in series [2] (setting [8]); more than 100 µM in series [3] (setting [9]). In addition, the IC50 in series [3] (U2OS cells) was more than 50 µM. For the same molecule, the Solubility result in series [4] was “DM SO, slig htly soluble in acetone, ethanol an d m ethanol”.

In the case of `O=C1N=C(NS(=O)(=O)c2cccc3ccccc23)S/C1=C\c1ccc(O)cc1` [compound 6, (Z)‐N‐(5‐(4‐hydroxybenzylidene)‐4‐oxo‐4,5‐dihydrothiazol‐2‐yl)naphthalene‐1‐sulfonamide], the IC50 in series [1] (setting [10]) is 5.6 µM; in series [1] (setting [6]), 5.6 µM; in series [1] (read-out: NTD‐PPI IC50 (ELISA)), 2.7 µM; in series [2] (setting [11]), more than 150 µM; in series [2] (setting [8]), more than 100 µM; in series [3] (setting [9]), 46.7 ± 13.1 µM. The Solubility result in series [4] was “DMSO, slightly soluble in ethanol, acetone, methanol and ethyl acetate”.

As for `O=C1N=C(NS(=O)(=O)c2cccc3ccccc23)S/C1=C\c1cccc([N+](=O)[O-])c1` [compound 14, (Z)‐N‐(5‐(3‐nitrobenzylidene)‐4‐oxo‐4,5‐dihydrothiazol‐2‐yl)naphthalene‐1‐sulfonamide], the IC50 in series [2] (setting [11]) was more than 150 µM; in series [2] (setting [8]) it was more than 100 µM; in series [3] (setting [9]) it was 34.4 ± 13.7 µM. Also, in series [4], the Solubility entry is “DMSO, slightly soluble in acetone, ethanol and methanol”.

Turning to `O=C1N=C(NS(=O)(=O)c2cccc3ccccc23)S/C1=C\c1ccc2c(c1)CCO2` [compound 57, (Z)‐N‐(5‐((2,3‐dihydrobenzofuran‐5‐yl)methylene)‐4‐oxo‐4,5‐dihydrothiazol‐2‐yl)naphthalene‐1‐sulfonamide], the IC50 in series [1] (setting [5]) was 3.27 µM; in series [1] (read-out: NTD‐PPI IC50 (ELISA)), less than 5 µM; in series [2] (setting [7]), more than 100 µM; in series [2] (setting [8]) it was more than 100 µM; in series [3] (setting [9]) it was 58.1 ± 12.6 µM; in series [3] (U2OS cells), more than 50 µM. For the same molecule, the Solubility result in series [4] is “DM SO, slig htly soluble in ethyl acetate, aceton e, ethanol and methanol”.

Regarding `O=C1N=C(NS(=O)(=O)c2cccc3ccccc23)S/C1=C\c1ccc(C(=O)O)cc1` [compound 9, 4‐[(Z)‐{2‐[(naphthalen‐1‐ylsulfonyl)amino]‐4‐oxo‐1,3‐thiazol‐5(4H)‐ylidene}methyl]benzoic acid], the IC50 in series [1] (setting [10]) is 7.4 µM; in series [2] (setting [11]), more than 150 µM. The Solubility entry in series [4] was “DMSO, slightly soluble in acetone, ethyl acetate, ethanol and methanol”.

`O=C1N=C(NS(=O)(=O)c2cccc3ccccc23)S/C1=C\c1ccc[nH]1` [compound 47, (Z)‐N‐(5‐((1H‐pyrrol‐2‐yl)methylene)‐4‐oxo‐4,5‐dihydrothiazol‐2‐yl)naphthalene‐1‐sulfonamide]: the “fold less active (NTD‐PPI) than furan (48)” value in series [1] (ELISA, C2 linked analogues) is 2 fold. For the same molecule, the IC50 in series [1] (setting [5]) was 5.3 µM; in series [1] (setting [6]), 5.3 µM; in series [3] (setting [9]) it was 27.2 ± 11.7 µM. Also, in series [4], the Solubility result was “DM SO slightly soluble in acetone an d methanol”.

For the molecule `O=C1N=C(NS(=O)(=O)c2cccc3ccccc23)S/C1=C\c1cccc(O)c1` [compound 7, N‐[(5Z)‐5‐(3‐hydroxybenzylidene)‐4‐oxo‐4,5‐dihydro‐1,3‐thiazol‐2‐yl]naphthalene‐1‐sulfonamide], the values for the IC50 in series [2] (setting [11]), in series [2] (setting [8]) and in series [3] (setting [9]) were more than 150 µM, more than 100 µM and 25 ± 14.6 µM, respectively. In series [4], the Solubility entry was “DMSO, slightly soluble in acetone, ethyl acetate, methanol and ethanol”.

As to `O=C1N=C(NS(=O)(=O)c2cccc3ccccc23)S/C1=C\c1cccc(C(=O)O)c1` [compound 10, (Z)‐3‐((2‐(naphthalene‐1‐sulfonamido)‐4‐oxothiazol‐5(4 H)‐ylidene)methyl)benzoic acid], the figures for the IC50 in series [1] (setting [10]) and in series [2] (setting [11]) were 5.3 µM and more than 150 µM, respectively. In addition, the Solubility result in series [4] is reported as “DMSO”.

In general, inhibition refers to the change of the read-out against control, counted positive when it falls. Consider `Cn1cc(/C=C2\SC(NS(=O)(=O)c3cccc4ccccc34)=NC2=O)c2ccccc21` [compound 61, (Z)‐N‐(5‐((1‐methyl‐1H‐indol‐3‐yl)methylene)‐4‐oxo‐4,5‐dihydrothiazol‐2‐yl)naphthalene‐1‐sulfonamide], for which the IC50 was 3.05 µM in series [1] (setting [5]), 3 µM in series [1] (read-out: NTD‐PPI IC50 (ELISA)) and more than 150 µM in series [2] (setting [12]). Moreover, in series [3], the inhibition at 5 µM was 9%. The inhibition at 50 µM in series [3] stood at 69%.

In the case of `Cc1[nH]c2ccccc2c1/C=C1\SC(NS(=O)(=O)c2cccc3ccccc23)=NC1=O` [compound 62, (Z)‐N‐(5‐((2‐methyl‐1H‐indol‐3‐yl)methylene)‐4‐oxo‐4,5‐dihydrothiazol‐2‐yl)naphthalene‐1‐sulfonamide], the 50% inhibitory concentration (IC50) in series [1] (setting [5]) is 2.37 µM; in series [1] (read-out: NTD‐PPI IC50 (ELISA)) it was 2.4 µM; in series [2] (setting [7]), more than 100 µM; in series [2] (setting [12]), more than 150 µM. Also, in series [3], the inhibition at 5 µM came out at 6%. In addition, in series [3], the inhibition at 50 µM came to 71%.

As for `O=C1N=C(NS(=O)(=O)c2cccc3ccccc23)SC1=Cc1ccc(-c2ccccc2)cc1` [compound 18, N‐(5‐([1,1'‐biphenyl]‐4‐ylmethylene)‐4‐oxo‐4,5‐dihydrothiazol‐2‐yl)naphthalene‐1‐sulfonamide], the IC50 is 1.4 µM in series [1] (setting [6]), 85 µM in series [2] (setting [11]), 85.3 µM in series [2] (setting [8]) and approximately 43.1 µM in series [3] (setting [9]).

Take `Cc1ccc2[nH]cc(/C=C3\SC(NS(=O)(=O)c4cccc5ccccc45)=NC3=O)c2c1` [compound 63, (Z)‐N‐(5‐((5‐methyl‐1H‐indol‐3‐yl)methylene)‐4‐oxo‐4,5‐dihydrothiazol‐2‐yl)naphthalene‐1‐sulfonamide]: the IC50 in series [1] (setting [5]) is 3.52 µM; in series [1] (read-out: NTD‐PPI IC50 (ELISA)) it was 3.5 µM; in series [2] (setting [7]), more than 100 µM; in series [2] (setting [12]), more than 150 µM. In addition, the inhibition at 5 µM in series [3] came out at 6%. Also, the inhibition at 50 µM in series [3] was determined as 68%.

For `O=C1N=C(NS(=O)(=O)c2cccc3ccccc23)S/C1=C\c1ccco1` [compound 48, (Z)‐N‐(5‐(furan‐2‐ylmethylene)‐4‐oxo‐4,5‐dihydrothiazol‐2‐yl)naphthalene‐1‐sulfonamide], the IC50 in series [1] (setting [5]) was 3.64 µM; in series [1] (setting [6]), 3.64 µM; in series [1] (read-out: NTD‐PPI IC50 (ELISA)), 3.6 µM; in series [3] (setting [9]), approximately 96.6 µM; in series [3] (U2OS cells), more than 50 µM. The Solubility result in series [4] is “DM SO, slig htly soluble in methanol”.
